Earlier results in EP0497915B1, “hPTH (1-37) FRAGMENT, ITS PRODUCTION, DRUG CONTAINING IT AND ITS USE” (HaemoPep Pharma GmbH, priority 1989, dated 1991).

B1: hPTH-(1-84): sezerniertes PTH-Molekül aus 84 Aminosäuren (peptide, UniProt P01270 32-115, looked up)
Parathyroid hormone: SVSEIQLMHNLGKHLNSMERVEWLRKKLQDVHNFVALGAPLAPRDAGSQRPRKKEDNVLVESHEKSLGEADKADVNVLTKAKSQ
modifications: Parathyroid hormone
notes: sezerniertes PTH-Molekül aus 84 Aminosäuren

Experiments:
hPTH-(44-68)-RIA = conditions: commercial RIA (Immundiagnostik), manufacturer's data
hPTH-(53-84)-RIA = conditions: commercial RIA (Immundiagnostik), manufacturer's data

Molecule	Kreuzreaktion im hPTH-(44-68)-RIA (hPTH-(44-68)-RIA)	Kreuzreaktion im hPTH-(53-84)-RIA (hPTH-(53-84)-RIA)
hPTH-(1-34): bekanntes synthetisches N-terminales hPTH-Fragment (SVSEIQLMHNLGKHLNSMERVEWLRKKLQDVHNF; Parathyroid hormone; UniProt P01270 32-65, looked up, fragment)	keine Kreuzreaktion	keine Kreuzreaktion
hPTH-(28-48): synthetisches hPTH-Peptid (LQDVHNFVALGAPLAPRDAGS; Parathyroid hormone; UniProt P01270 59-79, looked up, fragment)	keine Kreuzreaktion	keine Kreuzreaktion
hPTH-(44-68): synthetisches hPTH-Peptid, Standard des mittelregionalen RIA (RDAGSQRPRKKEDNVLVESHEKSLG; Parathyroid hormone; UniProt P01270 75-99, looked up, fragment)		keine Kreuzreaktion
hPTH-(53-84): synthetisches hPTH-Peptid, Standard des C-terminalen RIA (KKEDNVLVESHEKSLGEADKADVNVLTKAKSQ; Parathyroid hormone; UniProt P01270 84-115, looked up, fragment)	100%	
hPTH-(64-84): synthetisches hPTH-Peptid (EKSLGEADKADVNVLTKAKSQ; Parathyroid hormone; UniProt P01270 95-115, looked up, fragment)	keine Kreuzreaktion	100%
B1	100%	100%
